≈ marks a conversion by molar mass, not a printed value. Where “and” joins values, the source holds several entries; their conditions need not be identical. Identical values can stand only once. Like-named read-outs stand apart in the source and are kept apart here.
What was measured:
[1] = system: Neisseria gonorrhoeae strains
CYP3A = test: in vitro; settings: human, microsomes, % inhibition
CYP2C8 = CYP2C8 (Homo sapiens, UniProt P10632); test: in vitro; settings: microsomes, % inhibition, CYP2C8 inhibition (HLM, amodiaquine substrate)
Sequence of CYP2C8 (P10632 whole entry): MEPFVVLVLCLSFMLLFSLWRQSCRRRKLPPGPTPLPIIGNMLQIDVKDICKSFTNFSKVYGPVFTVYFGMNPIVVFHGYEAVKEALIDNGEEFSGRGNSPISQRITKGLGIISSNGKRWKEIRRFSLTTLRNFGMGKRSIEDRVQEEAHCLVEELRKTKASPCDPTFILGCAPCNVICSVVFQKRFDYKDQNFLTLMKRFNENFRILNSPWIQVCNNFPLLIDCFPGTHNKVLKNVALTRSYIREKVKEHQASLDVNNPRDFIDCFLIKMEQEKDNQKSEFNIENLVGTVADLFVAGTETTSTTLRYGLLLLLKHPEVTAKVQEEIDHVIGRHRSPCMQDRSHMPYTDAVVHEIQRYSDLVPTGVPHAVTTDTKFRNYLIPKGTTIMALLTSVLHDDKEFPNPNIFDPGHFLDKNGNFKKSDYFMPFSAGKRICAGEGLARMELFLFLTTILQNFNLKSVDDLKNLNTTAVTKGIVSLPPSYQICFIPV

CYP1A (printed CYPiA) = test: in vitro; settings: human, microsomes, % inhibition, CYPiA inhibition (HLM, phenacetin substrate)
CYP2C19 = CYP2C19 (Homo sapiens, UniProt P33261); test: in vitro; settings: microsomes, % inhibition, CYP2C19 inhibition (HLM, omeprazole substrate)
Sequence of CYP2C19 (P33261 whole entry): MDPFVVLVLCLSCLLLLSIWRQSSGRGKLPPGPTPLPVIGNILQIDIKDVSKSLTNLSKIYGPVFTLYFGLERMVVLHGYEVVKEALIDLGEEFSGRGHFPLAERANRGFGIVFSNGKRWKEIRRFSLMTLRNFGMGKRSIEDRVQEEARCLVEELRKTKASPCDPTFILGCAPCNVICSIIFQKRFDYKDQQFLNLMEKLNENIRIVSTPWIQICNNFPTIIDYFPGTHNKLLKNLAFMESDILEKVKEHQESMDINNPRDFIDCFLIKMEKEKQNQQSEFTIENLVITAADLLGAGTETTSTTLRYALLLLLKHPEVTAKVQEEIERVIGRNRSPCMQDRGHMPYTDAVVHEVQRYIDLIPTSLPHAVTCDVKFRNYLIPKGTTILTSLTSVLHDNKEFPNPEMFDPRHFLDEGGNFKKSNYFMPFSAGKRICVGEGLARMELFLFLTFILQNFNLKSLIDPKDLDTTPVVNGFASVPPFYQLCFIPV

CYP2B6 = CYP2B6 (Homo sapiens, UniProt P20813); test: in vitro; settings: microsomes, % inhibition, CYP2B6 inhibition (HLM, bupropion substrate)
Sequence of CYP2B6 (P20813 whole entry): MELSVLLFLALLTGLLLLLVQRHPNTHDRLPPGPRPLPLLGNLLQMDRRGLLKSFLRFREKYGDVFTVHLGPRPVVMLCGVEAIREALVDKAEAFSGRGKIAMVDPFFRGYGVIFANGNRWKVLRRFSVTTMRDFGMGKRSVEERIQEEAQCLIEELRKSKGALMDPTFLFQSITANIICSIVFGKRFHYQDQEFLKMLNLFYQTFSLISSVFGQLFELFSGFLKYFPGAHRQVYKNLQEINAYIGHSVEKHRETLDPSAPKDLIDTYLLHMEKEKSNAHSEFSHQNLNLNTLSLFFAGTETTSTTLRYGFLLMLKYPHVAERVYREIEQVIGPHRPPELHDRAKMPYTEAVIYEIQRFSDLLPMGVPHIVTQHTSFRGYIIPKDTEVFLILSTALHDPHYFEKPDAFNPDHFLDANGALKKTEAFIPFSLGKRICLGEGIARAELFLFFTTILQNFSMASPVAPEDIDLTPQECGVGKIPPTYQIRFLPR

CYP2D6 = CYP2D6 (Homo sapiens, UniProt P10635); test: in vitro; settings: microsomes, % inhibition, CYP2D6 inhibition (HLM, dextromethorphan substrate)
Sequence of CYP2D6 (P10635 whole entry): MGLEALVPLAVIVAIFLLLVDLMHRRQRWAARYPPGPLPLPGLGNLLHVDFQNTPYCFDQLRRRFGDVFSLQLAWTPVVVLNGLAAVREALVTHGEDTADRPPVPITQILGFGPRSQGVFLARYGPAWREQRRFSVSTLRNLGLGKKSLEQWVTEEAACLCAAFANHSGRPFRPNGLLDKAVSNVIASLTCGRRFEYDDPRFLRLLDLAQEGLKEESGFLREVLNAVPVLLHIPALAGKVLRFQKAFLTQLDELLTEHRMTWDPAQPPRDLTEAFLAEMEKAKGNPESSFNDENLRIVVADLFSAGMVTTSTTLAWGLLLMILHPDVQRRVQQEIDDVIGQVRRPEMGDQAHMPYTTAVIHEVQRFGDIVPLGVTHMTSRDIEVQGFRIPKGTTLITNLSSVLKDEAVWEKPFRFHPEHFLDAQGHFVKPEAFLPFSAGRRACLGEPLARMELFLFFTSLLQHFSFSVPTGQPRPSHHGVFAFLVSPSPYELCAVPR

CYP2C9 = CYP2C9 (Homo sapiens, UniProt P11712); test: in vitro; settings: microsomes, % inhibition, CYP2C9 inhibition (HLM, diclofenac substrate)
Sequence of CYP2C9 (P11712 whole entry): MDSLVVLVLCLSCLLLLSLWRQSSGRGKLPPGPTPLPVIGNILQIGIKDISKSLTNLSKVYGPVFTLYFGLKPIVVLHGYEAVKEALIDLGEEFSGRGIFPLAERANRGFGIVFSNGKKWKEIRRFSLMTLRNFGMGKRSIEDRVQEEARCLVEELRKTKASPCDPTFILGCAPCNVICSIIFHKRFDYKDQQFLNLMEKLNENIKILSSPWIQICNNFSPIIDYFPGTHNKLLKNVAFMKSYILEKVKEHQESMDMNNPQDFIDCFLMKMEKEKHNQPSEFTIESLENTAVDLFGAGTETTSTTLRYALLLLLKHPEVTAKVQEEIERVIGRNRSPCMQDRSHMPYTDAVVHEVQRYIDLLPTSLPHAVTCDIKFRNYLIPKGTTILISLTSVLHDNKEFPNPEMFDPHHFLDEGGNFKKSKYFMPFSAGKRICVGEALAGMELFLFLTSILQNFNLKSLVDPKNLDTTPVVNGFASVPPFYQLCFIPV

[2] = Single dose pharmacokinetics study, oral route; settings: 20 mg/kg
[3] = target: Safetyscreen44 off target panel (Rattus norvegicus, UniProt P28564)
Sequence of Safetyscreen44 off target panel (Rattus norvegicus, UniProt P28564) (P28564 whole entry): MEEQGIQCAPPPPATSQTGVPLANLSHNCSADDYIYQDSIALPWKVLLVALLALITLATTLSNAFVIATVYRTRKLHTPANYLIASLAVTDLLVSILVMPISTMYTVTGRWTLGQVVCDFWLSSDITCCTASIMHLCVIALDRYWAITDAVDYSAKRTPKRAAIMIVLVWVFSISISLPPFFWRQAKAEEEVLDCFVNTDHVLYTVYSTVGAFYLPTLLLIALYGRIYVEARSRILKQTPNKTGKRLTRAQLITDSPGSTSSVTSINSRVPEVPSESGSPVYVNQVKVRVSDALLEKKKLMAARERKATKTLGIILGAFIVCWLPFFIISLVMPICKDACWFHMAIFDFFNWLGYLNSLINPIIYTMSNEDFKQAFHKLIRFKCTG

[4] = target: Safetyscreen44 off target panel (Homo sapiens, UniProt P08908)
Sequence of Safetyscreen44 off target panel (Homo sapiens, UniProt P08908) (P08908 whole entry): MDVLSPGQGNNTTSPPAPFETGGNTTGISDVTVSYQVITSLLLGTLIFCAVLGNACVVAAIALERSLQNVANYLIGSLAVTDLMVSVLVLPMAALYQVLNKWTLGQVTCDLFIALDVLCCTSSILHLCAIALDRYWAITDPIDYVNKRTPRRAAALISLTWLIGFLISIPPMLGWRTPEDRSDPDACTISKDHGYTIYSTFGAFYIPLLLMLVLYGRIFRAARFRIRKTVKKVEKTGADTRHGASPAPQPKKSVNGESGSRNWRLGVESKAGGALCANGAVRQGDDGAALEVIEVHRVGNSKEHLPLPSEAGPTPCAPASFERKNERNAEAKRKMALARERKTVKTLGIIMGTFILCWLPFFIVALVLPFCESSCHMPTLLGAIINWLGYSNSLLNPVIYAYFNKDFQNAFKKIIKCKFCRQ

[5] = system: Staphylococcus aureus ATCC29213; test: Murine thigh infection model, thigh bacterial burden; format: in vivo; settings: neutropenic mice; for Log10 reduction from vehicle control / Thigh bacterial burden, Group Geometric mean / Thigh bacterial burden, Log10 Group Geometric mean: 8 h, 14 h post-infection, 18 h post infection; for decrease of thigh bacterial burden compared to vehicle group: 8 h and 14 h post infection, burden 18 h post infection
[6] = thigh infection study, treated groups, relative to day of infection
[7] = male, CD-1 (ICR), mouse, in vivo, iv, 5 mg/kg
[8] = male, CD-1 (ICR), mouse, in vivo, po

C[C@H]1COc2c(N3CC[C@@H](Nc4ncccn4)C3)c(F)cc3c(=O)c(C(=O)O)cn1c23 [KSN-82-L22]
MIC ([1]; strain FDA-CDC AR-BANK#0192, CIP-R PEN-R TET-R): 2 µg/mL (≈ 4.7 µM)
MIC ([1]; strain FDA-CDC AR-BANK#0193, CIP-S PEN-R TET-R): < 0.0312 µg/mL
MIC ([1]; strain FDA-CDC AR-BANK#0194, CRO-NS CIP-S PEN-I TET-R): < 0.0312 µg/mL
MIC ([1]; strain FDA-CDC AR-BANK#0195, CIP-R PEN-I TET-R): 2 µg/mL (≈ 4.7 µM)
MIC ([1]; strain FDA-CDC AR-BANK#0196, CIP-R PEN-R TET-R): 2 µg/mL (≈ 4.7 µM)
MIC ([1]; strain FDA-CDC AR-BANK#0197, CIP-R PEN-I TET-I): 2 µg/mL (≈ 4.7 µM)
MIC ([1]; strain FDA-CDC AR-BANK#0198, CIP-R PEN-R TET-R): 2 µg/mL (≈ 4.7 µM)
MIC ([1]; strain FDA-CDC AR-BANK#0199, CIP-S PEN-R TET-R): < 0.0312 µg/mL
MIC ([1]; strain FDA-CDC AR-BANK#0200, CIP-R PEN-R TET-R): 2 µg/mL (≈ 4.7 µM)
MIC ([1]; strain FDA-CDC AR-BANK#0201, CIP-R PEN-R TET-R): 2 µg/mL (≈ 4.7 µM)
MIC ([1]; strain FDA-CDC AR-BANK#0202, CIP-S PEN-S TET-I): < 0.0312 µg/mL
MIC ([1]; strain FDA-CDC AR-BANK#0203, CIP-R PEN-R TET-R): 2 µg/mL (≈ 4.7 µM)
MIC ([1]; strain FDA-CDC AR-BANK#0204, CIP-R PEN-I TET-R): 2 µg/mL (≈ 4.7 µM)
MIC ([1]; strain FDA-CDC AR-BANK#0205, CIP-R PEN-R TET-R): 2 µg/mL (≈ 4.7 µM)
MIC ([1]; strain FDA-CDC AR-BANK#0206, CIP-R PEN-R TET-R): 2 µg/mL (≈ 4.7 µM)
MIC ([1]; strain FDA-CDC AR-BANK#0207, CIP-R PEN-R TET-R): 2 µg/mL (≈ 4.7 µM)
MIC ([1]; strain FDA-CDC AR-BANK#0208, CIP-R PEN-I TET-R): 2 µg/mL (≈ 4.7 µM)
MIC ([1]; strain FDA-CDC AR-BANK#0209, CIP-R PEN-I TET-R): 2 µg/mL (≈ 4.7 µM)
MIC ([1]; strain FDA-CDC AR-BANK#0210, CIP-R PEN-I TET-I): 2 µg/mL (≈ 4.7 µM)
MIC ([1]; strain FDA-CDC AR-BANK#0211, CIP-R PEN-R TET-R): 2 µg/mL (≈ 4.7 µM)
MIC ([1]; strain FDA-CDC AR-BANK#0212, CIP-R PEN-I TET-R): 2 µg/mL (≈ 4.7 µM)
MIC ([1]; strain FDA-CDC AR-BANK#0213, CIP-R PEN-I TET-I): 1 µg/mL (≈ 2.35 µM)
MIC ([1]; strain FDA-CDC AR-BANK#0214, CIP-R PEN-R TET-R): 2 µg/mL (≈ 4.7 µM)
MIC ([1]; strain TCDC-NG08107, PEN-R CFM-R CPD-R CIP-R): 2 µg/mL (≈ 4.7 µM)
inhibition at 10 µM (CYP3A; CYP3A inhibition (HLM, midazolam substrate)): 25.2%
inhibition at 10 µM (CYP3A; CYP3A inhibition (HLM, testosterone substrate)): 6.52%
inhibition at 10 µM (CYP2C8): 3.05%
inhibition at 10 µM (CYP1A (printed CYPiA)): 9.56%
inhibition at 10 µM (CYP2C19): 0.632%
inhibition at 10 µM (CYP2B6): -1.32%
inhibition at 10 µM (CYP2D6): 0%
inhibition at 10 µM (CYP2C9): 12.8%
Clast ([2]; PO, Male CD1 mouse, blood, Mean): 628 ng/mL
AUC [2, 8]: 8230 ng·h/mL and 19.3 µM·h
AUC(0-inf) [2, 8]: 31 µM·h
Cmax [2, 8]: 4.01 µM and 2960 ng/mL
Tmax [2, 8]: 1 h
% inhibition, 5-HT1B (antagonist radioligand) [3]: −16.7063%
% inhibition, 5-HT1A(h) (agonist radioligand) [4]: −3.77%
Log10 reduction from vehicle control ([5]; 20 mg/kg PO at 2 h): 5.00 log10 CFU/g
Thigh bacterial burden, Group Geometric mean ([5]; 20 mg/kg PO at 2 h): 2.01 × 10^3 cfu/g
Thigh bacterial burden, Log10 Group Geometric mean ([5]; 20 mg/kg PO at 2 h): 3.30 log10 cfu/g
Log10 reduction from vehicle control ([5]; 50 mg/kg PO at 2 h): 5.16 log10 CFU/g
Thigh bacterial burden, Group Geometric mean ([5]; 50 mg/kg PO at 2 h): 1.37 × 10^3 cfu/g
Thigh bacterial burden, Log10 Group Geometric mean ([5]; 50 mg/kg PO at 2 h): 3.14 log10 cfu/g
decrease of thigh bacterial burden compared to vehicle group ([5]; 20 mg/kg/dose oral at 2 h, 20 mg/kg): 5 log10 CFU/g and > 5 log10 CFU/g
decrease of thigh bacterial burden compared to vehicle group ([5]; 50 mg/kg/dose oral at 2 h, 50 mg/kg): 5.16 log10 CFU/g and > 5 log10 CFU/g
body weights following infection [6]: slightly increased
AUGinf [7]: 6691 ng·h/mL
Liver Blood Flow [7]: 10.4%
